Results: ChEMBL document CHEMBL1933058, “5-(2-amino-pyrimidin-4-yl)-1H-pyrrole and 2-(2-amino-pyrimidin-4-yl)-1,5,6,7-tetrahydro-pyrrolo[3,2-c]pyridin-4-one derivatives as new classes of selective and orally available Polo-like kinase 1 inhibitors” (Bioorg Med Chem Lett, 2012)
≈ marks a conversion by molar mass, not a printed value. Values belong to the compound of their own block, whether it stands above or below them.

How the values were obtained:
[1] = biological target: Cyclin-dependent kinase 2/cyclin A (Homo sapiens, UniProt P24941); test: Inhibition of CDK2/cyclin A; assay type: protein-complex assay
[2] = Intrinsic clearance in rat hepatocytes at 1 uM; assay type: ADME, cell-based, Liver, Hepatocyte; conditions: read-out: CLH
Aurora kinase A = biological target: T1, Aurora kinase A (Homo sapiens, UniProt O14965); test: Inhibition of Aurora-A
T1 sequence (O14965 whole entry): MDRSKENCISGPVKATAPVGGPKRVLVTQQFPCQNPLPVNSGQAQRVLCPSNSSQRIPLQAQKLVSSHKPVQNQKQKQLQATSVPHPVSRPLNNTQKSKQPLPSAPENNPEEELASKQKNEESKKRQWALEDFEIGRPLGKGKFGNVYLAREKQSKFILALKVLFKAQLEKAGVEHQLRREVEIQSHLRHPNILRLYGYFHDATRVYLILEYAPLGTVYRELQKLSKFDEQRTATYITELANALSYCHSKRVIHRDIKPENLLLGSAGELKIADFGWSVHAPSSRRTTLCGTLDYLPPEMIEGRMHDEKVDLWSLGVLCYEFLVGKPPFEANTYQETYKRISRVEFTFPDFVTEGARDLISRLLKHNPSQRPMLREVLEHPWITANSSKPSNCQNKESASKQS

Aurora kinase B = Aurora kinase B (Homo sapiens, UniProt Q96GD4); test: Inhibition of Aurora-B
[3] = Inhibition of NIM
LNCaP = test: Antiproliferative activity against human LNCAP cells; assay type: functional, cell-based
[4] = biological target: Serine/threonine-protein kinase 26 (Homo sapiens, UniProt Q9P289); test: Inhibition of MST4
K562 = test: Antiproliferative activity against human K562 cells; assay type: functional, cell-based
[5] = Solubility of the compound at pH 7; assay type: physicochemical; conditions: buffer
HCT-116 = test: Antiproliferative activity against human HCT116 cells; assay type: functional, cell-based
[6] = Apparent permeability of the compound by PAMPA; assay type: ADME
[7] = biological target: Tyrosine-protein kinase JAK2 (Homo sapiens, UniProt O60674); test: Inhibition of JAK2
A2780 = test: Antiproliferative activity against human A2780 cells; assay type: functional, cell-based
[8] = Inhibition of CK2
[9] = biological target: Cyclin-dependent kinase 5 activator 1 (Homo sapiens, UniProt Q15078); test: Inhibition of CDK5/P25
A-375 = test: Antiproliferative activity against human A375 cells; assay type: functional, cell-based
[10] = biological target: cAMP-dependent protein kinase catalytic subunit alpha (Homo sapiens, UniProt P17612); test: Inhibition of PKAalpha
[11] = biological target: Tyrosine-protein kinase Lck (Homo sapiens, UniProt P06239); test: Inhibition of LCK
[12] = Inhibition of PDGFR
[13] = biological target: Fibroblast growth factor receptor 1 (Homo sapiens, UniProt P11362); test: Inhibition of FGFR1
MDA-MB-468 = test: Antiproliferative activity against human MDA-MB-468 cells; assay type: functional, cell-based
[14] = biological target: Cyclin-dependent kinase 2/cyclin E1 (Homo sapiens, UniProt P24941); test: Inhibition of CDK2/cyclin E; assay type: protein-complex assay
[15] = biological target: Serine/threonine-protein kinase Nek6 (Homo sapiens, UniProt Q9HC98); test: Inhibition of NEK6
[16] = biological target: Tyrosine-protein kinase ABL1 (Homo sapiens, UniProt P00519); test: Inhibition of c-ABL
[17] = biological target: RAC-alpha serine/threonine-protein kinase (Homo sapiens, UniProt P31749); test: Inhibition of AKT1
Insulin receptor = Insulin receptor (Homo sapiens, UniProt P06213); test: Inhibition of IR
[18] = biological target: Hepatocyte growth factor receptor (Homo sapiens, UniProt P08581); test: Inhibition of MET
[19] = biological target: MAP kinase-activated protein kinase 2 (Homo sapiens, UniProt P49137); test: Inhibition of MAP-KAPK2
[20] = Intrinsic clearance in human liver microsomes at 1 uM; assay type: ADME, Microsome; conditions: read-out: CLH
[21] = biological target: Serine/threonine-protein kinase PAK 4 (Homo sapiens, UniProt O96013); test: Inhibition of PAK4
MOLM-13 = test: Antiproliferative activity against human MOLM13 cells; assay type: functional, cell-based
Caco-2 = test: Apparent permeability across human Caco2 cells; assay type: ADME, cell-based
[22] = biological target: Inhibitor of nuclear factor kappa-B kinase subunit beta (Homo sapiens, UniProt O14920); test: Inhibition of IKK2
[23] = biological target: High affinity nerve growth factor receptor (Homo sapiens, UniProt P04629); test: Inhibition of TRKA
[24] = biological target: Mitogen-activated protein kinase 1 (Homo sapiens, UniProt P28482); test: Inhibition of ERK2
[25] = biological target: Serine/threonine-protein kinase PLK3 (Homo sapiens, UniProt Q9H4B4); test: Inhibition of PLK3
MOLT-4 = test: Antiproliferative activity against human MOLT4 cells; assay type: functional, cell-based
[26] = biological target: Glycogen synthase kinase-3 beta (Homo sapiens, UniProt P49841); test: Inhibition of GSK3-beta
[27] = biological target: Insulin-like growth factor 1 receptor (Homo sapiens, UniProt P08069); test: Inhibition of IGFR1
[28] = biological target: Cell division cycle 7-related protein kinase (Homo sapiens, UniProt O00311); test: Inhibition of CDC7
[29] = biological target: Vascular endothelial growth factor receptor 3 (Homo sapiens, UniProt P35916); test: Inhibition of VEGFR3
[30] = biological target: Vascular endothelial growth factor receptor 2 (Homo sapiens, UniProt P35968); test: Inhibition of VEGFR2
[31] = biological target: Epidermal growth factor receptor (Homo sapiens, UniProt P04626+P00533+Q15303+P21860); test: Inhibition of EGFR1; assay type: protein assay
[32] = biological target: Cyclin-dependent kinase 4/cyclin D1 (Homo sapiens, UniProt P11802); test: Inhibition of CDK4/cyclin D1; assay type: protein-complex assay
[33] = biological target: Cyclin-dependent kinase 1/cyclin B1 (Homo sapiens, UniProt P06493); test: Inhibition of CDK1/cyclin B; assay type: protein-complex assay
[34] = biological target: Protein kinase C beta type (Homo sapiens, UniProt P05771); test: Inhibition of PKCbeta
[35] = biological target: Protein-tyrosine kinase 6 (Homo sapiens, UniProt Q13882); test: Inhibition of BRK
[36] = biological target: Mast/stem cell growth factor receptor Kit (Homo sapiens, UniProt P10721); test: Inhibition of KIT
[37] = Inhibition of SULU1
[38] = biological target: Proto-oncogene tyrosine-protein kinase receptor Ret (Homo sapiens, UniProt P07949); test: Inhibition of RET
[39] = Antiproliferative activity against human SUP-M2 cells; assay type: functional, cell-based
[40] = biological target: Serine/threonine-protein kinase PLK2 (Homo sapiens, UniProt Q9NYY3); test: Inhibition of PLK2
[41] = biological target: Serine/threonine-protein kinase Chk1 (Homo sapiens, UniProt O14757); test: Inhibition of CHK1
[42] = Tmax in Nu/Nu Balb Harlan mouse at 10 mg/kg, po; assay type: ADME, organism-based; parameters: dose 10 mg/kg, route oral; conditions: in vivo
[43] = biological target: Mitogen-activated protein kinase 14 (Homo sapiens, UniProt Q16539); test: Inhibition of P38alpha
[44] = biological target: Serine/threonine-protein kinase PLK1 (Homo sapiens, UniProt P53350); test: Inhibition of PLK1
Serine/threonine-protein kinase PLK1, sequence (P53350 whole entry): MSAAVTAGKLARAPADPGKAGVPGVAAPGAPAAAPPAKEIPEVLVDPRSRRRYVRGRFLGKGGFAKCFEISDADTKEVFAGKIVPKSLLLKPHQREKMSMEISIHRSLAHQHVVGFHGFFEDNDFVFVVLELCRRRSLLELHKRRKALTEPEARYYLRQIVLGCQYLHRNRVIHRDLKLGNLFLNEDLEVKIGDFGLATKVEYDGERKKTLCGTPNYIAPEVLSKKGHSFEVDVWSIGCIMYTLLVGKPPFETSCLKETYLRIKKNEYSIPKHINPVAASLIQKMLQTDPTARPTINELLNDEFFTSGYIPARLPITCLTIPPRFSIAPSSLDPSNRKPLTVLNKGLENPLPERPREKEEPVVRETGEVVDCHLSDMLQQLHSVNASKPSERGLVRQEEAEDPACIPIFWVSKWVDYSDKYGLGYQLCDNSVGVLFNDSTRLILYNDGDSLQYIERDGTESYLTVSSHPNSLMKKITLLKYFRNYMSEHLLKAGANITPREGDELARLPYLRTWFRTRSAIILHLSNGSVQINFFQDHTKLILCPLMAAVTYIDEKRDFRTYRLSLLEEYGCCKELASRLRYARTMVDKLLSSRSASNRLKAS

Serine/threonine-protein kinase PLK2, sequence (Q9NYY3 whole entry): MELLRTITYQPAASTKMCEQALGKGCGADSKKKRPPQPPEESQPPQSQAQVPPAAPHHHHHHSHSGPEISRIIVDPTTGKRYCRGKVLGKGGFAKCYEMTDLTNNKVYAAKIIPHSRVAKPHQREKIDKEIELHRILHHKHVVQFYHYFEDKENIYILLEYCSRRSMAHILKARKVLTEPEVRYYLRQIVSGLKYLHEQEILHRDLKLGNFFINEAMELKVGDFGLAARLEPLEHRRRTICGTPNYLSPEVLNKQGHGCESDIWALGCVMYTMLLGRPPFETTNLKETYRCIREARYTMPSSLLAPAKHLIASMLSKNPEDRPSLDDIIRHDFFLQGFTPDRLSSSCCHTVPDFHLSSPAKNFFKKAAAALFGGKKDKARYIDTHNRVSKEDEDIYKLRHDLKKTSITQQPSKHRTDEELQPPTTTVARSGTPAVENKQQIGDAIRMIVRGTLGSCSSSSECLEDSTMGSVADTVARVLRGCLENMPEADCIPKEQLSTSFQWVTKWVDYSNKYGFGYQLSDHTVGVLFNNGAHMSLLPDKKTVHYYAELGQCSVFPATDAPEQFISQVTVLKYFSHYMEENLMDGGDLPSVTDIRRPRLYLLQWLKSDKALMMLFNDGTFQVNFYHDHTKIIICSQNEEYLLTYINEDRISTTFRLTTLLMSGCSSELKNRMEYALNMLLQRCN
Serine/threonine-protein kinase PLK3, sequence (Q9H4B4 whole entry): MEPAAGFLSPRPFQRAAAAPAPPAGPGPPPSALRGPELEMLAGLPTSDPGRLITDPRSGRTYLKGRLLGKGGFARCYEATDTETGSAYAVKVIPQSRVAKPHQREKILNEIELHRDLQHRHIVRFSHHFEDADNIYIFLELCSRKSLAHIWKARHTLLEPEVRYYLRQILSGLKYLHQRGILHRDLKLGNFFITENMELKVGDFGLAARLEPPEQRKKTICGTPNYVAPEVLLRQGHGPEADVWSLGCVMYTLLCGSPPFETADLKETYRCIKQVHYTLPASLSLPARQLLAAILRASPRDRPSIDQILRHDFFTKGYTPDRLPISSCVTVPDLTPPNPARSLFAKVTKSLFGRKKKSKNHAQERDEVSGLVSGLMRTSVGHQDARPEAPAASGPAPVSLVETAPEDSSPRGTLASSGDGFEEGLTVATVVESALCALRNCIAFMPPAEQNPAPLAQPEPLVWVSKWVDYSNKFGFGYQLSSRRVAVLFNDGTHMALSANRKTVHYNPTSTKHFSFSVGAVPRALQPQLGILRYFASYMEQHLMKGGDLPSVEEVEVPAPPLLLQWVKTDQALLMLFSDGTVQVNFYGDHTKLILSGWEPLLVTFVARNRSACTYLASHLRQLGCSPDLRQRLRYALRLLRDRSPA
Mitogen-activated protein kinase 1, sequence (P28482 whole entry): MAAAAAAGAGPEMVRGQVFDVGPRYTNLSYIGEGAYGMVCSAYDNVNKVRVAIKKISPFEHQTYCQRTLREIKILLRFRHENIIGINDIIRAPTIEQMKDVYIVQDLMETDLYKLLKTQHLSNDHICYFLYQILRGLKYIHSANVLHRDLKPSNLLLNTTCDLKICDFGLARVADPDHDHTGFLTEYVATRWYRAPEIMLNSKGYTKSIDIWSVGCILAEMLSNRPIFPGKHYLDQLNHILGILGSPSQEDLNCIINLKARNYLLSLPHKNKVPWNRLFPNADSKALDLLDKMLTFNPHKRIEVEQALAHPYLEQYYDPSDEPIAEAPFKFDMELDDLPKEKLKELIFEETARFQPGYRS
Inhibitor of nuclear factor kappa-B kinase subunit beta, sequence (O14920 whole entry): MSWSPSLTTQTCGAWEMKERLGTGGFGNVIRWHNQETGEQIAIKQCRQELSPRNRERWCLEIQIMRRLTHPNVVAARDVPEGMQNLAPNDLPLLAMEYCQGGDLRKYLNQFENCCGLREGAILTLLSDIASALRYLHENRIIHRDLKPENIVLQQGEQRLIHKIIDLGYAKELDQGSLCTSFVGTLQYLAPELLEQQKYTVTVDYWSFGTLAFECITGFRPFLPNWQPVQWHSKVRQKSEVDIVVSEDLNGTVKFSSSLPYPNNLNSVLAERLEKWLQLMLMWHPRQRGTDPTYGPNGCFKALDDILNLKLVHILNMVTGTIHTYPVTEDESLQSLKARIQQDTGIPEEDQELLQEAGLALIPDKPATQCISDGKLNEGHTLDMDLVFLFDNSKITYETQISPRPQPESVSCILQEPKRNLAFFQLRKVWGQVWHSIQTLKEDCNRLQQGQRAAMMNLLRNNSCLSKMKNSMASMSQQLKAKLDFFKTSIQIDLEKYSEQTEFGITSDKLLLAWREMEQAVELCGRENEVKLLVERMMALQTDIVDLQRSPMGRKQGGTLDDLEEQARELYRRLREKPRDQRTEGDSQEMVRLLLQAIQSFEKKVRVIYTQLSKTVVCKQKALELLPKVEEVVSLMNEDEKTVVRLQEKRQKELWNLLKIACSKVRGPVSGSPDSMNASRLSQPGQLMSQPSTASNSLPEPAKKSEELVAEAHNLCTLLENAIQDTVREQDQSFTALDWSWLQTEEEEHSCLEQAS
Cyclin-dependent kinase 4/cyclin D1, sequence (P11802 whole entry): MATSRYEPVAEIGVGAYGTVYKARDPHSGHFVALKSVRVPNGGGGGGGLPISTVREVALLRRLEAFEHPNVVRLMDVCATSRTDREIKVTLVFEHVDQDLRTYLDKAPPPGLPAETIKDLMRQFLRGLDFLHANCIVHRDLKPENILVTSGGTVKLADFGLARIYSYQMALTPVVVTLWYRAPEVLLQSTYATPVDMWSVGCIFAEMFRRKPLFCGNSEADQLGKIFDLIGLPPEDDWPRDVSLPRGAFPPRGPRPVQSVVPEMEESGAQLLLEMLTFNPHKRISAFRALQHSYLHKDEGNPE
Cyclin-dependent kinase 4/cyclin D1, sequence (P24385 whole entry, further chain): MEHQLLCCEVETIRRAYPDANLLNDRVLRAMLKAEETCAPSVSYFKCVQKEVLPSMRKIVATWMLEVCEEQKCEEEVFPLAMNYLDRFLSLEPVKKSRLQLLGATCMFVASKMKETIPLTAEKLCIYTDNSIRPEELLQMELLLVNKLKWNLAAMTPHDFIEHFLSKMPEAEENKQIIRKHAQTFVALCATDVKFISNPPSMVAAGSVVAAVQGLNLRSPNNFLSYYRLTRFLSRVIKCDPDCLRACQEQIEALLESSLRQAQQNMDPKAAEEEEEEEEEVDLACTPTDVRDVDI
Tyrosine-protein kinase Lck, sequence (P06239 whole entry): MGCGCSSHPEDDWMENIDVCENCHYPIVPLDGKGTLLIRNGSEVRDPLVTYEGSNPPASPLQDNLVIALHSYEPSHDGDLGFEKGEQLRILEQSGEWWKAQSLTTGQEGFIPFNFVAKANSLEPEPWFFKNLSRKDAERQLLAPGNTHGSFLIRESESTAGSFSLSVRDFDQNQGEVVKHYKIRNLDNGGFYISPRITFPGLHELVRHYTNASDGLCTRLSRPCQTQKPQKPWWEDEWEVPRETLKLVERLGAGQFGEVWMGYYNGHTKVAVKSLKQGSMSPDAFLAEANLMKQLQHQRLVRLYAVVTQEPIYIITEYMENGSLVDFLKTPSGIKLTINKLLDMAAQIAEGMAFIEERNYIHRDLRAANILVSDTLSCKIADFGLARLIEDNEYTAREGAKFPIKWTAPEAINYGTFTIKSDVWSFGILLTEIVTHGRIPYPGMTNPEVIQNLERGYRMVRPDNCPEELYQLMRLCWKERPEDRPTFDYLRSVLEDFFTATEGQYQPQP
Aurora kinase B, sequence (Q96GD4 whole entry): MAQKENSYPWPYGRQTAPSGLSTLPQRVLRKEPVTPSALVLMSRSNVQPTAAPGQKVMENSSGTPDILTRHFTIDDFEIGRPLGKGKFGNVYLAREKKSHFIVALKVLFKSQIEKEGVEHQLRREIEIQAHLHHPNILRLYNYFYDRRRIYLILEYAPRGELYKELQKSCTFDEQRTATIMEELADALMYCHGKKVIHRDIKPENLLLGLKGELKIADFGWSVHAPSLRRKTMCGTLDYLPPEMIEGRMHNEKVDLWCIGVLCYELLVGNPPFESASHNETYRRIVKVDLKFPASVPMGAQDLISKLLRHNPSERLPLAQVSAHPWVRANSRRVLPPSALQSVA
RAC-alpha serine/threonine-protein kinase, sequence (P31749 whole entry): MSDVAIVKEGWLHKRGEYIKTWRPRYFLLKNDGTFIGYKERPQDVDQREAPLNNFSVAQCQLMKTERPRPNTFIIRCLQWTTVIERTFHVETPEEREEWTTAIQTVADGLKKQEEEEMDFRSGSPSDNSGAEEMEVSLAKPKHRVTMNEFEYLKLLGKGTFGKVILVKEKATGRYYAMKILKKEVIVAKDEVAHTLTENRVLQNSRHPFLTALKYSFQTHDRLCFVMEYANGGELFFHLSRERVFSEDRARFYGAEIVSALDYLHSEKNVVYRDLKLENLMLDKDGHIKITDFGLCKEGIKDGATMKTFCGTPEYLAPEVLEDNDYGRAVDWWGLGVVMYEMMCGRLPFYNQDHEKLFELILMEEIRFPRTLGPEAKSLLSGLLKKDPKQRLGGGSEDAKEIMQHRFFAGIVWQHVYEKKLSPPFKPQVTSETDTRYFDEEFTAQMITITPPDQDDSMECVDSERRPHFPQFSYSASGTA

IC50 [1]: > 10 µM
CLint scaled at 1 µM [2]: 408 mL/min/kg
IC50 (Aurora kinase A): > 10 µM
IC50 (Aurora kinase B): > 10 µM
IC50 [3]: > 10 µM
IC50 (LNCaP): 0.28 µM
IC50 [4]: > 10 µM
IC50 (K562): 0.59 µM
solubility [5]: 174 µM (≈ 82.7 µg/mL)
IC50 (HCT-116): 0.52 µM
Papp [6]: 50 ×10⁻⁶ cm/s
IC50 [7]: > 10 µM
IC50 (A2780): 0.36 µM
IC50 [8]: 0.951 µM
IC50 [9]: > 10 µM
IC50 (A-375): 0.386 µM
IC50 [10]: > 10 µM
IC50 [11]: > 10 µM
IC50 [12]: > 10 µM
IC50 [13]: > 10 µM
IC50 (MDA-MB-468): 0.624 µM
IC50 [14]: > 10 µM
IC50 [15]: > 10 µM
IC50 [16]: > 10 µM
IC50 [17]: > 10 µM
IC50 (Insulin receptor): > 10 µM
IC50 [18]: > 10 µM
IC50 [19]: > 10 µM
CLint scaled at 1 µM [20]: 14.9 mL/min/kg
IC50 [21]: > 10 µM
IC50 (MOLM-13): 0.201 µM
Papp (Caco-2): permeable
IC50 [22]: > 10 µM
IC50 [23]: > 10 µM
IC50 [24]: > 10 µM
IC50 [25]: > 10 µM
IC50 (MOLT-4): 0.253 µM
IC50 [26]: > 10 µM
IC50 [27]: > 10 µM
IC50 [28]: > 10 µM
IC50 [29]: > 10 µM
IC50 [30]: > 10 µM
IC50 [31]: > 10 µM
IC50 [32]: > 10 µM
IC50 [33]: > 10 µM
IC50 [34]: > 10 µM
IC50 [35]: > 10 µM
IC50 [36]: > 10 µM
IC50 [37]: > 10 µM
IC50 [38]: > 10 µM
IC50 [40]: > 10 µM
IC50 [41]: > 10 µM
Tmax [42]: 30 min
IC50 [43]: > 10 µM
Structure (SMILES): CN1CCN(c2ccc(OC(F)(F)F)c(Nc3nccc(-c4cc(C(N)=O)cn4C)n3)c2)CC1
IC50 [39]: 0.647 µM

IC50 [1]: > 10 µM
IC50 (Aurora kinase A): > 10 µM
IC50 (A2780): 0.062 µM
IC50 [44]: 0.028 µM
IC50 [25]: > 10 µM
IC50 [40]: > 10 µM
Structure (SMILES): CN1CCN(c2ccc(OC(F)(F)F)c(Nc3nccc(-c4cc5c(n4CC(F)(F)F)CCNC5=O)n3)c2)CC1

IC50 [1]: > 10 µM
IC50 (Aurora kinase A): > 10 µM
IC50 (A2780): 4.51 µM
IC50 [44]: > 10 µM
IC50 [25]: > 10 µM
IC50 [40]: > 10 µM
Structure (SMILES): Cn1cc(C(N)=O)cc1-c1ccnc(Nc2cc(N3CCN(C(=O)OC(C)(C)C)CC3)ccc2OC(F)(F)F)n1

IC50 [1]: > 10 µM
IC50 (Aurora kinase A): > 10 µM
IC50 (A2780): 0.176 µM
IC50 [44]: 0.817 µM
IC50 [25]: > 10 µM
IC50 [40]: > 10 µM
Structure (SMILES): CN1CCN(c2ccc(OC(F)(F)F)c(Nc3nccc(-c4cc5c(n4C)CCN(C(=O)OC(C)(C)C)C5=O)n3)c2)CC1

IC50 [1]: > 10 µM
IC50 (Aurora kinase A): > 10 µM
IC50 (A2780): 6.69 µM
IC50 [44]: 0.272 µM
IC50 [25]: > 10 µM
IC50 [40]: > 10 µM
Structure (SMILES): CN1CCN(c2ccc(OC(F)(F)F)c(Nc3nccc(-c4cc(C(N)=O)cn4CCOC4CCCCO4)n3)c2)CC1 (stereo not drawn)

IC50 [1]: > 10 µM
IC50 (Aurora kinase A): > 10 µM
IC50 (A2780): 2.53 µM
IC50 [44]: 0.151 µM
IC50 [25]: > 10 µM
IC50 [40]: > 10 µM
Structure (SMILES): CN1CCN(c2ccc(OC(F)(F)F)c(Nc3nccc(-c4cc(C(N)=O)cn4CCO)n3)c2)CC1

IC50 [1]: > 10 µM
IC50 (Aurora kinase A): > 10 µM
IC50 [44]: > 10 µM
Structure (SMILES): NC(=O)c1c[nH]c(-c2ccnc(N)n2)c1
